# Test results from paper PMC8322070, “A novel orally active HDAC6 inhibitor T-518 shows a therapeutic potential for Alzheimer’s disease and tauopathy in mice” (Scientific Reports, 2021).
# How the values were obtained:
# human HDAC1 = molecular target: T1, human HDAC1 (Homo sapiens, UniProt Q13547); test: HDAC enzyme assay (HDAC-Glo I/II), HDAC1; assay type: biochemical; conditions: concentrations up to 10 μM
# T1 construct: purchased SignalChem Pharmaceutical Inc
# Method: Recombinant HDAC6, HDAC7, HDAC1 were obtained from SignalChem Pharmaceutical Inc. (Richmond, BC, Canada), and recombinant human HDAC4 was prepared at Takeda pharmaceutical company. One μL of T-518 diluted with DMSO was added to 75 μL of assay buffer (24 mM Tris–HCl (pH 7.5), 135 mM NaCl, 0.35 mM KCl, 1 mM MgCl2, 0.01% Tween 20, 0.6 mM GSH) in 384 well plates. Two μL of diluted compounds were added to 384 well plates and 2 μL of recombinant HDAC enzymes was added and then centrifuged at 1000 rpm for 10 s. The final concentrations of each HDAC enzyme were as follows, human HDAC1, 170 pM; human HDAC6, […]; human HDAC4, 68 pM; human HDAC7, 13 pM. After incubation for 60 min at room temperature, 4 μL of HDAC-Glo reagent [HDAC-Glo I/II (Promega) for HDAC6 and HDAC1, HDAC-Glo class IIa (Promega) for HDAC4 and HDAC7] was added to start the reaction. After incubation for 20 min at room temperature, the luminescence was measured by Envision plate reader (PerkinElmer, Waltham, MA, USA). For experiments under the condition of 0 min preincubation, 4 μL of HDAC-Glo reagent was added at first to the 384 well plates including diluted compounds. […] After centrifugation at 1000 rpm for 10 s. and then incubation for 20 min at room temperature, the luminescence was measured by Envision. […] The inhibitory activity of T-518 was expressed as the value of IC50. […]
# [1] = tested on: tubulin acetylation in mouse primary neural cultures; test: Tubulin acetylation in mouse primary neural culture (ELISA); assay type: cell-based; conditions: 24 h
# Method: (§1) T-518, ACY-738, Ricolinostat, and Tubastatin A were synthesized in Takeda. For in vitro cellular experiments, the compounds were solubilized with DMSO and diluted in the culture medium at the indicated concentrations. For in vivo experiments, the compound was reconstituted in 0.5% methylcellulose and administered orally at the indicated doses. After administration, mouse hippocampus was isolated and homogenized in RIPA extraction buffer (50 mM Tris–HCl, 150 mM NaCl, 1% NP-40, 0.5% sodium deoxycholate, and 0.1% SDS, pH 8.0) supplemented with protease and phosphatase inhibitor cocktail (Thermo Fischer, Waltham, MA, USA). The homogenate was centrifuged at 10,000g for 15 min and the supernatant was taken as the RIPA-soluble fraction.
# (§2) Primary cortical neurons were prepared from E14 C57BL/6J mouse embryos (CLIEA Japan, Inc., Tokyo, Japan) using papain-containing Neuron Dissociation Solutions (Fujifilm Wako, Tokyo, Japan). Isolated cells were suspended in Neurobasal Medium containing B-27 (Thermo Fisher) and seeded on poly-D-lysine-coated plates (Corning, NY, USA) under 5% CO2 at 37 °C for 6 days in vitro (DIV) prior to evaluation of HDAC6 inhibitors. Cells were treated with HDAC6 inhibitors at the indicated concentrations for 24 h and lysed in RIPA extraction buffer (50 mM Tris–HCl, 150 mM NaCl, 1% NP-40, 0.5% sodium deoxycholate, and 0.1% SDS, pH 8.0) supplemented with protease and phosphatase inhibitor cocktail (Thermo Fisher).
# Acetylated α-tubulin and total tubulin levels were measured by sandwich ELISA. Ninety six-well plates (Microlite2+, Thermo) were coated with α-tubulin capture antibody (1:100) by overnight incubation at 4 °C, washed 4 times with PBS'T, treated with blocking buffer (1% bovine serum albumin in PBS'T) at 37 °C for 2 h, and washed another 4 times with PBS’T. Cell or tissues lysate was added to the wells and plates were incubated at 37 °C for 2 h. Plates were then washed 4 times with PBST, incubated with a detection antibody for acetylated tubulin or total α-tubulin diluted in blocking buffer at 37℃ for 1 h, rewashed 4 more times with PBST, incubated with a mouse secondary antibody conjugated to horseradish peroxidase (HRP) for 30 min, wash 4 times again with PBST, and then incubated with chemiluminescent substrate (SuperSignal).
# [2] = tested on: Histone H3 acetylation in mouse primary neural cultures; test: Histone H3 acetylation in mouse primary neural culture (Western blotting); assay type: cell-based; conditions: DIV6 mouse primary neural culture, 3 and 30 μM, 24 h
# Method: as §1, §2
# Cell lysate or in vivo protein samples were separated by 10% SDS-PAGE, then electrophoretically transferred to 0.45 μm poly-vinylidene difluoride membranes (Millipore). Membranes were blocked for 1 h in Blocking Reagent (TOYOBO, Osaka, Japan), probed with primary antibodies followed by labeling with HRP-coupled secondary antibodies (Amersham, Piscataway, NJ), and then visualized using chemiluminescence reagent (ECL; Amersham). Images were captured using ImageQuant LAS 4000 (GE healthcare Bio-Sciences, Marlborough, MA, USA). Quantitative densitometric analyses were conducted using ImageQuant TL (GE healthcare Bio-Sciences). The protocol was slightly modified for detection of HDAC6 in cortex. Briefly, cerebral cortex was homogenized in RIPA buffer supplemented with 1 μM microstatin, 1 μM MG115, 40 μM Leupeptin, 100 μM ABSF, and 2 mM sodium orthovanadate, separated by 7.5–15% gradient SDS-PAGE and electrophoretically transferred to 0.45 μm poly-vinylidene difluoride membranes (Millipore). Membranes were blocked for 1 h with ECL Prime Blocking Reagent (Amersham, Piscataway, NJ) prior to immunoblotting, visualization, and densitometry as described above.
# [3] = Free fraction in a brain (Fu,b); assay type: in vitro ADME; conditions: data not shown
# experimental mice = test: Tolerability of chronic dosing; assay type: in vivo
# T1 sequence (Q13547 whole entry): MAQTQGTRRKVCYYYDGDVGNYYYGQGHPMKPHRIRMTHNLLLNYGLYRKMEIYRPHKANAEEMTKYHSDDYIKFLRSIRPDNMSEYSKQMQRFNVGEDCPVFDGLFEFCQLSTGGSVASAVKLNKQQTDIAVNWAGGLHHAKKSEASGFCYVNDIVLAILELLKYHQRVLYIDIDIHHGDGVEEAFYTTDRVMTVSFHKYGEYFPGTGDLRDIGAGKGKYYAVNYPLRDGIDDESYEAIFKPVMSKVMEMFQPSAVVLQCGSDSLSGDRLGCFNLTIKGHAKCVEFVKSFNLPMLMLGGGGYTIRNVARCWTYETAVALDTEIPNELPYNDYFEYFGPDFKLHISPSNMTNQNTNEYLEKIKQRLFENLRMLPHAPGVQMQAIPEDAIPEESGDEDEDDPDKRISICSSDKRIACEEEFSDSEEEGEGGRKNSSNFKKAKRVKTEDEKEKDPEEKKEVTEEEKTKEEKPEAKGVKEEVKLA
smiles,measurement,setting,value
"O=C1c2cc(-c3nnc(C(F)F)o3)cnc2CN1[C@@H]1CCCC[C@H]1NC(=O)C(F)(F)C(F)(F)F [T-518, N-[(1R,2R)-2-{3-[5-(difluoromethyl)-1,3,4-oxadiazol-2-yl]-5-oxo-5H,6H,7H-pyrrolo[3,4-b]pyridin-6-yl}cyclohexyl]-2,2,3,3,3-pentafluoropropanamide]",inhibition of human HDAC1 enzyme activity,human HDAC1,did not obviously inhibit
same,effect on tubulin acetylation,"[1]; DIV6 mouse primary neural culture, 0.1–10 μM, ELISA",significantly and concentration-dependently elevates tubulin acetylation
same,concentration at which elevation of tubulin acetylation is statistically significant,[1]; mouse neurons,≥ 0.1 µM
same,effect on Histone H3 acetylation,[2],neither T-518 nor Tubastatin A at 3 and 30 μM demonstrates this activity
same,fraction unbound,[3],0.4
same,tolerability of chronic dosing,experimental mice,well tolerated
